In brackets after ≈: the same amount, converted by molar mass. Marks after values point to notes of the source that are not given here.
How the values were obtained:
[1] = pH 7.4
Protocol: (§1) PAMPA is used as an in vitro model of passive, transcellular permeability. An artificial membrane immobilized on a filter is placed between a donor and acceptor compartment. At the start of the test, drug is introduced in the donor compartment (at various pH). Following the permeation period, the concentrations of compound in the donor compartment and acceptor compartment are measured using UV spectroscopy.

Plasma stability, human = assay type: in vitro ADME
Text: (§2) Plasma stability is a measure of the stability of small molecules and peptides in plasma and is an important parameter that can strongly influence the in vivo efficacy of a test compound. Drug candidates are exposed in plasma to enzymatic processes (proteinases, esterases), and they can undergo intramolecular rearrangement or bind irreversibly (covalently) to proteins.

[2] = Hepatic microsome stability, mouse; assay type: in vitro ADME; settings: mouse microsomes, 1 hour
Text: (§3) The microsomal stability assay is commonly used to rank compounds according to their metabolic stability. This assay addresses the pharmacologic question of how long the parent compound will remain circulating in plasma within the body.

Plasma stability, mouse = assay type: in vitro ADME
Text: as §2

in vitro = settings: for Papp: PAMPA
Protocol: as §1

physchem = assay: physchem
Protocol: In addition to profiling the selectivity of this class of KOR ligands, basic pharmacological properties were assessed.

M3 = M3 (Homo sapiens, UniProt P20309); assay: PDSP radioligand binding assay
M3, sequence (P20309 whole entry): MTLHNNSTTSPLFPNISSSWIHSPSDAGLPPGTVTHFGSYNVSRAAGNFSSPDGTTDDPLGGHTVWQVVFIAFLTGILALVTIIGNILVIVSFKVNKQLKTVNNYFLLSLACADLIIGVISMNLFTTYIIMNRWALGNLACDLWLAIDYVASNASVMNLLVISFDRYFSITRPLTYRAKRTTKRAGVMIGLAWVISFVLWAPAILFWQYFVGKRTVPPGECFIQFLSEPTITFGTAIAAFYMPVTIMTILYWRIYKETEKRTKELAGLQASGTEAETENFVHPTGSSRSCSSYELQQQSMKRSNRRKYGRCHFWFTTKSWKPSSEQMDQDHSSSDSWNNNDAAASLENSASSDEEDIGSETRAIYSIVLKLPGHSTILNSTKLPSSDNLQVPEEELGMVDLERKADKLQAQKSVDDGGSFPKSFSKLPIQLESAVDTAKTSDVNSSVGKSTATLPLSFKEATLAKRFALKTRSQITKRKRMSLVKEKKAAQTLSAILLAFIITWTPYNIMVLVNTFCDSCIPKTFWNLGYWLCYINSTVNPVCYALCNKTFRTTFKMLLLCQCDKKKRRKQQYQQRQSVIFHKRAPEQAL
Protocol: (§4) The compound was initially screened in radioligand binding assays at a constant concentration (10 μM) to identify possible activity of the compound. Results showing significant activity in the initial screen were selected for Ki determinations.
(§5) As a representative of the Chemotype II series, the MLPCN probe molecule 2{8} was subjected to a binding assay panel of 44 GPCR and other molecular targets by the Pyschoactive Drug Screening Program (PDSP) (Table 10). The compound was initially screened in a radioligand binding assay at a constant concentration (10 μM) to identify possible activity of the compound. Results showing significant activity in the initial screen were selected for Ki determinations.

M2 = M2 (Homo sapiens, UniProt P08172); assay: PDSP radioligand binding assay
M2, sequence (P08172 whole entry): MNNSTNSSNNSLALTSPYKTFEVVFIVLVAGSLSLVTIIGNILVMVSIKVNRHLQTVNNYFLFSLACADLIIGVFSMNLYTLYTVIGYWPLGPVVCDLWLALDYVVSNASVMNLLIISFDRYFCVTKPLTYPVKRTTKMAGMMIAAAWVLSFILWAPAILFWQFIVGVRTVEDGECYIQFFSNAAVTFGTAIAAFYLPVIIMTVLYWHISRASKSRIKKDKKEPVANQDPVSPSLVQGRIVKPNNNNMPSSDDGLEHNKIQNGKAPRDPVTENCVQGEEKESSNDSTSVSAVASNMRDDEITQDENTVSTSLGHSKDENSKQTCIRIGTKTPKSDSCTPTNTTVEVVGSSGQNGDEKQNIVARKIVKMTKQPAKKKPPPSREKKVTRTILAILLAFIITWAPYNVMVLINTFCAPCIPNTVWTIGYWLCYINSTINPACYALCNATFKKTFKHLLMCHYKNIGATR
Protocol: as §4, §5

D4 = D4 (Homo sapiens, UniProt P21917); assay: PDSP radioligand binding assay
D4, sequence (P21917 whole entry): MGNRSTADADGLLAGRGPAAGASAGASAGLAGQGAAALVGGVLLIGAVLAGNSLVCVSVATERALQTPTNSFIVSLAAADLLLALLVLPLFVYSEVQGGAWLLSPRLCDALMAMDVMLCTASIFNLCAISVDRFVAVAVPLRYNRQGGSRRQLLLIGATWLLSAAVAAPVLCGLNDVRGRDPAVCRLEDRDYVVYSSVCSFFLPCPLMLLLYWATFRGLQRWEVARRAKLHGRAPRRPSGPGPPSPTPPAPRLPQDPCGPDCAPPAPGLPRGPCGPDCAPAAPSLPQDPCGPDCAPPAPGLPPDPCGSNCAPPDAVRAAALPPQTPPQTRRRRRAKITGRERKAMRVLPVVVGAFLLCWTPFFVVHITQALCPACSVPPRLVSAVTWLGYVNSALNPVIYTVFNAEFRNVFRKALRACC
Protocol: as §4, §5

5ht7 = 5ht7 (Homo sapiens, UniProt P34969); assay: PDSP radioligand binding assay
5ht7, sequence (P34969 whole entry, species assumed): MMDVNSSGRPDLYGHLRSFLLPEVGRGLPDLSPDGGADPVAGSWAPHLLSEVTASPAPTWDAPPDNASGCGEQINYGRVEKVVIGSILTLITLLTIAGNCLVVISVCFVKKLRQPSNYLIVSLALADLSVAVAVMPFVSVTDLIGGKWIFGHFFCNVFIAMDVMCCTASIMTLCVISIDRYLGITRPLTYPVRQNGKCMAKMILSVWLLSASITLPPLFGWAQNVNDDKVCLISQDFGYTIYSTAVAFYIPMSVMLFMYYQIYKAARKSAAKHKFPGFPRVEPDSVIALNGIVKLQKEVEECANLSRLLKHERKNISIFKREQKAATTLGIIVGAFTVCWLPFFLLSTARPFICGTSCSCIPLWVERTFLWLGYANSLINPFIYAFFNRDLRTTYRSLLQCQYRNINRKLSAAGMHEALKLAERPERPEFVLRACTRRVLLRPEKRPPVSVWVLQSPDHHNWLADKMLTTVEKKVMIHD
Protocol: as §4, §5

Alpha1A = Alpha1A (Homo sapiens, UniProt P35348); assay: PDSP radioligand binding assay
Alpha1A, sequence (P35348 whole entry): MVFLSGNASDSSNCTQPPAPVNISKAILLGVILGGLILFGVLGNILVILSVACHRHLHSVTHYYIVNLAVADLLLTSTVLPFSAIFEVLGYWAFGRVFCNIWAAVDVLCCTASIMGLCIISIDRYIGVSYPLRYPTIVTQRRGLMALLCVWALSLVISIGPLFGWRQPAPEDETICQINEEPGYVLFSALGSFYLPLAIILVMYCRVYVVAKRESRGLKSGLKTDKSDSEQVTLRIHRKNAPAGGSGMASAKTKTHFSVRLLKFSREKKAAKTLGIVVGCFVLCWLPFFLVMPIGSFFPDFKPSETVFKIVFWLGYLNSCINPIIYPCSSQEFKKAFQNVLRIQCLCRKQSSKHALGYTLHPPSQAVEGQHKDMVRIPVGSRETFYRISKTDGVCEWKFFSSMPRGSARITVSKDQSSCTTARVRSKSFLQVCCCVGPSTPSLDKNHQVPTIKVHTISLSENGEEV
Protocol: as §4, §5

D5 = D5 (Homo sapiens, UniProt P21918); assay: PDSP radioligand binding assay
D5, sequence (P21918 whole entry): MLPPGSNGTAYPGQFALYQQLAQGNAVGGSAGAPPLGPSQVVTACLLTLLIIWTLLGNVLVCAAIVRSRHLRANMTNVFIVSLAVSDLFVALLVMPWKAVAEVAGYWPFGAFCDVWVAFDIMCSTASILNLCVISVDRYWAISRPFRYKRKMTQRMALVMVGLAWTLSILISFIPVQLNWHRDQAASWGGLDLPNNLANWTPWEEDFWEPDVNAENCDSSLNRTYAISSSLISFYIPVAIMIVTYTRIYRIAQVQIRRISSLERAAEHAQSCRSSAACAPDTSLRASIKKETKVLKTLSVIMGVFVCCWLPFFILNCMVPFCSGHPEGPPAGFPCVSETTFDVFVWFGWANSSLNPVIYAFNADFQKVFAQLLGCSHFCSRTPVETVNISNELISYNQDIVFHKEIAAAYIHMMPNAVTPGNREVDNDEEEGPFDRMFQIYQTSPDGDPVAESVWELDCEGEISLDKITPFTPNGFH
Protocol: as §4, §5

KOP receptor [3] = target: T1, KOP receptor (Homo sapiens, UniProt P41145); assay: 35S-GTPγS coupling, inhibition; assay type: biochemical
T1 sequence (P41145 whole entry): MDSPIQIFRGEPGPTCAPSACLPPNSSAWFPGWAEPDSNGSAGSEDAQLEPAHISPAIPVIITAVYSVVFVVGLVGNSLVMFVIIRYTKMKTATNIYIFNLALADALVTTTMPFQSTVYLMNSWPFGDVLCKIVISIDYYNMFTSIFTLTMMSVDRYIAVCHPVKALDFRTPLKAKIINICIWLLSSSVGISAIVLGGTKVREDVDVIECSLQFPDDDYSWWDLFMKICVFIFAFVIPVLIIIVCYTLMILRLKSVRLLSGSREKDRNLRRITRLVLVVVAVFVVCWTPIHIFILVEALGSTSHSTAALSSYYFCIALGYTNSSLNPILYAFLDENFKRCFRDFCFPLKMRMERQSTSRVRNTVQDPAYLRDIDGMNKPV

[4] = Plasma protein binding, human; assay type: in vitro ADME
Text: Plasma protein binding is a measure of a drug's efficiency to bind to the proteins within blood plasma. The less bound a drug is, the more efficiently it can traverse cell membranes or diffuse. Highly plasma protein bound rugs are confined to the vascular space, thereby having a relatively low volume of distribution. In contrast, drugs that remain largely unbound in plasma are generally available for distribution to other organs and tissues. In the instant case, the Chemotype I antagonist 1{3} was marginally available with 88.46% and 80.07% bound to 1 μM and 10 μM mouse plasma protein, respectively, and 93.96% and 88.54% bound to 1 μM and 10 μM human plasma protein, respectively.

[5] = Stability in PBS at room temperature; assay type: physicochemical; settings: 48 hours, <0.1% DMSO
[6] = Hepatic microsome stability, human; assay type: in vitro ADME; settings: human microsomes, 1 hour
Text: as §3

KOP receptor [7] = target: T1, KOP receptor; assay: ERK 1/2 activation, inhibition; assay type: cell-based
MOR = MOR (Homo sapiens, UniProt P35372); assay: High content imaging based β-arrestin translocation assay, MOR agonist (MOR HCS); assay type: cell-based; settings: n = 2, read-out: Average Potency MOR HCS
MOR, sequence (P35372 whole entry, the tested form may be a part): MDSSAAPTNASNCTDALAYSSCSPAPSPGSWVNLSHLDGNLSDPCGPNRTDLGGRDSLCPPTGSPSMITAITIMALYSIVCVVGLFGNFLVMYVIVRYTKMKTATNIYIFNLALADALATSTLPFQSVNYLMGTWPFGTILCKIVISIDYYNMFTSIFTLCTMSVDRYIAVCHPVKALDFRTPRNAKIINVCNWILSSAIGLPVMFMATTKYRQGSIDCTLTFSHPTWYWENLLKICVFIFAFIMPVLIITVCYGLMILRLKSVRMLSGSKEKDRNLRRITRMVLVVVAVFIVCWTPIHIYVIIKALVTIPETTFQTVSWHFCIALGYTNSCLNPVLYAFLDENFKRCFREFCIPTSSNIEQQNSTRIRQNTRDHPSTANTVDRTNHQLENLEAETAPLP
Text: In this campaign, two assay platforms were employed to evaluate KOR activity and selectivity: the KOR1 DISCOVERX β-Arrestin […] assay and an imaging based β-arrestin translocation assay for confirmatory and selectivity assays. The KOR1 DISCOVERX β-Arrestin […] assay is a commercial platform for direct measurement of GPCR (G protein-coupled receptor) activation by detection of β-Arrestin binding to the KOR. […] In cells that stably express these fusion proteins, ligand stimulation results in the recruitment of β-Arrestin by the GPCR. This interaction encourages the complementation of the two β-galactosidase fragments resulting in the formation of a functional enzyme that converts substrate in the assay medium to a detectable signal. The imaging based high-content β-arrestin translocation assay is based upon the redistribution of β-Arrestin linked to green fluorescent protein (GFP) to the cell surface and detection (Barak, et al. (1997) J. Biol. Chem. 272:27497-27500).
Initially, a portion (approximately 290,000 compounds) of the MLSMR compound collection was tested in the KOR1 DISCOVERX β-arrestin primary kappa opioid (KOP) agonist and antagonist screens (PUBCHEM AID 1777 and 1778, respectively) at a single concentration point (10 μM). […] These compounds were concurrently tested in a β-galactosidase counterscreen assay (PUBCHEM AID 1966) to assess the possibility that these compounds might inhibit the reporting enzyme. […] The KOR:DOR:MOR selectivity of the compounds was determined using the analogous β-arrestin translocation assays for the DOR (PUBCHEM AID 2370 and 2357, for agonists and antagonist, respectively) and the MOR (PUBCHEM AID 2352 and 2420, for agonists and antagonists, respectively).

[8] = tested on: Fa2N-4 immortalized human hepatocytes; assay: Hepatocyte toxicity; settings: read-out: LC50; Fa2N-4 hepatocytes
DAT = DAT (Homo sapiens, UniProt Q01959); assay: PDSP radioligand binding assay; settings: Table 10
DAT, sequence (Q01959 whole entry, species assumed): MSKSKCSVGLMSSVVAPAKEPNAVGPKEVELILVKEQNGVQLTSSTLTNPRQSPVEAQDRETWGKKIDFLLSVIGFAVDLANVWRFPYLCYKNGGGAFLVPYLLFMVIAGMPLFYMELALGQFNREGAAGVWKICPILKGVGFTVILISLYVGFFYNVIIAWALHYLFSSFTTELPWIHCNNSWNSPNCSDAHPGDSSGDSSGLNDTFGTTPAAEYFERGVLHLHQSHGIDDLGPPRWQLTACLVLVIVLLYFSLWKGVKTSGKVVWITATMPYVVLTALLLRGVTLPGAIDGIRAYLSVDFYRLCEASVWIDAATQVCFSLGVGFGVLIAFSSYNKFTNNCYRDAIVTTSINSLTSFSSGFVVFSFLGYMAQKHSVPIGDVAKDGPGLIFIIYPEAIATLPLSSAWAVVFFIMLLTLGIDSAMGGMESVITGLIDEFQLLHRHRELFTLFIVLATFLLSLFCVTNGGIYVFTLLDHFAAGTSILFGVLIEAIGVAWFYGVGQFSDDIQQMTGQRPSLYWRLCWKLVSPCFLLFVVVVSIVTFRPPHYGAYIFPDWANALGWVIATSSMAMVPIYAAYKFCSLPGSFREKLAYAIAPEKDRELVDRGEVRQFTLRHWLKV
Protocol: as §4, with “The broader selectivity of compound 1{3} was tested against additional targets and basic pharmacological properties were assessed. […] The” for “The”
as §5

With `COc1ccc(N2CCN(CCCNC(=O)Cn3c(=O)c4cccn4c4c(C)ccnc43)CC2)cc1` [Compound 1{3}, N-(3-(4-(4-Methoxyphenyl)piperazin-1-yl)propyl)-2-(1-methyl-6-oxopyrido[2,3-e]pyrrolo[1,2-a]pyrazin-5(6H)-yl)acetamide] as the compound, how does the “blood brain barrier PAMPA permeability” value [1] read?
The value was 51 ×10⁻⁶ cm/s.

What about the “plasma stability, remaining” value (Plasma stability, human; human, plasma, 3 h) of the same compound?
The value was 100%.

And the “microsomal stability, remaining” value [2]?
Its value is 7.3%.

And the “plasma stability, remaining” value (Plasma stability, mouse; mouse, plasma, 3 h)?
The value was 100%.

What about the Papp (in vitro; pH 5) of the same compound?
The Papp was 27 ×10⁻⁶ cm/s.

And the Papp (in vitro; pH 6.2)?
Its Papp is 227 ×10⁻⁶ cm/s.

What about the Papp (in vitro; pH 7.4) of the same compound?
Its Papp is 757 ×10⁻⁶ cm/s.

What about the solubility (physchem; aqueous buffer) of the same compound?
Its solubility is over 90 µg/mL.

What about the solubility (physchem; pH 5) of the same compound?
The solubility was 96.6 µg/mL (≈ 198 µM).

What about the solubility (physchem; pH 6.2) of the same compound?
Its solubility is 90.6 µg/mL (≈ 185 µM).

What about the Ki (M3; Table 5) of the same compound?
Its Ki is over 10 µM.

What about the Ki (M2; Table 5) of the same compound?
Its Ki is over 10 µM.

What about the Ki (D4; Table 5) of the same compound?
Its Ki is over 10 µM.

And the Ki (5ht7; Table 5)?
The Ki was over 10 µM.

And the Ki (Alpha1A; Table 5)?
Its Ki is over 10 µM.

And the Ki (D5; Table 5)?
Its Ki is over 10 µM.

And the “Imax (% NBNI)” value (KOP receptor [3])?
The value was 117 ± 5^a % NBNI.

What about the fraction unbound at 1 μM ([4]; plasma, human, 1 μM, read-out: bound to plasma protein (converted)) of the same compound?
The fraction unbound at 1 μM was 0.0604.

And the fraction unbound at 10 μM ([4]; plasma, human, 10 μM, read-out: bound to plasma protein (converted))?
Its fraction unbound at 10 μM is 0.115.

And the parent compound remaining [5]?
The parent compound remaining was 94.42%.

And the “microsomal stability, remaining” value [6]?
Its value is 22%.

What about the “Imax (% NBNI)” value (KOP receptor [7]) of the same compound?
Its value is 90 ± 2^a % NBNI.

Which results are given for `Clc1ccc(CSc2nnc(-c3ccccn3)n2Cc2ccco2)cc1Cl` [Compound 2{8}]?
plasma stability, remaining (Plasma stability, human; human plasma, 3 hours): 100%; microsomal stability, remaining [2]: 0.03%; EC50 (MOR): > 32 µM; plasma stability, remaining (Plasma stability, mouse; mouse plasma, 3 hours): 100%; PAMPA permeability (in vitro; donor pH 5): 1793 ×10⁻⁶ cm/s; PAMPA permeability (in vitro; donor pH 6.2): 1921 ×10⁻⁶ cm/s; PAMPA permeability (in vitro; donor pH 7.4): 2089 ×10⁻⁶ cm/s; solubility in aqueous buffer (physchem; pH 5.0): < 0.1 µg/mL; solubility in aqueous buffer (physchem; pH 6.2): 0.29 µg/mL (≈ 0.695 µM); solubility in aqueous buffer (physchem; pH 7.4): 0.14 µg/mL (≈ 0.335 µM); Ki (M3; Table 10): > 10 µM; Ki (M2; Table 10): > 10 µM; Ki (D4; Table 10): > 10 µM; Ki (5ht7; Table 10): > 10 µM; Ki (Alpha1A; Table 10): > 10 µM; Ki (D5; Table 10): 7.02 µM; bound to plasma ([4]; human plasma): > 99%; microsomal stability, remaining [6]: 0.03%; CC50 [8]: > 50 µM; Ki (DAT): > 10 µM
